From patent publication US20050202407A1, “Methods and assays for screening anti-neoplastic therapeutic agents” (Baylor College of Medicine, priority 2003, published 2005)
Values belong to the molecule of their own block, whether it stands above or below them.

How the values were obtained:
[1] = tested on: ERK1/2; assay: Phosphorylated ERK1/2 by Western blot; type: cell-based, human; conditions: Adcav-1- or AdRSV-infected cells
Description: Unless specifically indicated, immunoprecipitation (IP) was performed as follows. Cells were washed with ice-cold phosphate-buffered saline (PBS), lysed on the plates by incubation for 10 min on ice with IP lysis buffer, which consists of 20 mM Tris-HCl (pH 7.5), 150 mM NaCl, 1 mM EDTA, 1 mM EGTA, 1% Triton X-100, 1 mM β-glycerophosphate, 60 mM octylglucoside and protease inhibitor cocktail. Cells were then scraped off the dish, transferred to microcentrifuge tubes, placed on ice for 20 min, and centrifuged for 10 min at high speed in a microcentrifuge at 4° C. The supernatant (cell lysate) was transferred to a fresh tube and frozen at −80° C. until use. Typically, 500 μg of cell lysate proteins were diluted to 500 μl with IP lysis buffer and precleared by incubation with 3 μg of the corresponding immunoglobulin G (IgG) from […] for 30 min at 4° C. on a rocker, followed by the addition of 50 μl of IP lysis buffer-prewashed protein A or G plus agarose and incubation for another 1 h. The cleared cell lysate was incubated with 3 μg of specific antibody or the corresponding IgG overnight at 4° C. on a rocker. […] For regular Western blot analysis, protein concentration in cell lysates was determined by the Bio-Rad protein assay, and 30 μg of protein from each sample was loaded on the gel. β-Actin served as a loading control.

[2] = tested on: LNCaP cells; assay: Viability assay with MEK inhibitors
Description: (§1) Cells were infected or transfected in six-well plates. Forty-eight hours after infection or transfection, cells were treated with 1 μM Tg for the time indicated. At the end of the treatments MTS assays were performed using CellTiter 96 aqueous one solution reagent from Promega by a modified version of the procedure. Briefly 300 μl of MTS solution was added to each well and incubated for 1 h at 37° C. One milliliter of reaction or medium mix was transferred from each well to an Eppendorf tube and then centrifuged in a microcentrifuge for 5 min at 4,000 rpm (˜3,000×g). One hundred microliters of supernatant was transferred to each well of a 96-well plate, and the relative viability was determined by the measurement of absorbance at 490 nm in a 96-well plate reader. […] Apoptotic morphology was analyzed with phase-contrast fluorescence microscopy after incubation with 0.2 μg of 4′6′-dismidino-2-phenylindole (DAPI) per ml. The activities of caspases in the cell lysates were analyzed by Western blotting using specific antibodies recognizing procaspases or cleaved forms of caspases, followed by quantitative intensity analysis using software (GelExpert; Nucleo Vision) and normalized to the intensity of β-actin in the same sample.

[3] = tested on: PI3-K; assay: PI3-K activity assay (TLC); type: cell-based, human; conditions: 1 μM Tg for 48 h; cav-1-expressing and control LNCaP cells
Description: Cell lysates were prepared as described above for the Akt activity assay. PI3-K activity assays were performed as described below. Briefly, 500 μg of cell lysate proteins were immunoprecipitated with monoclonal antibody against phosphotyrosine for 3 h at 4° C. with gentle rocking, and the beads were washed twice with lysis buffer and twice with PI3-K assay buffer (20 mM Tris [pH 7.5], 100 mM NaCl, 0.5 mM EGTA, 20 mM MgCl2). PI was dissolved in chloroform (5 mg/ml) and diluted to 0.5 mg/ml with PI3-K assay buffer, followed by sonication. […] Five microliters of washed chloroform phase from each sample was loaded on a TLC plate and analyzed by ascending chromatography in chloroform-methanol-29.5% ammonium hydroxide-water (90:90:8:19), followed by autoradiography.
Protein expression levels and kinase activities of PI3-K, PDK1, and Akt were determined in cav-1-expressing or vector control LNCaP cells before and after treatment with 1 μM Tg for 48 h (+Tg): (A) PI3-K kinase assay by TLC (top gel); (B) PDK1 IP kinase assay; (C) Akt IP kinase assay using recombinant GSK3 as a substrate. Total protein and phosphorylated protein (indicated by P-prefix before protein name) of each kinase were analyzed and presented in each blot. β-Actin served as a loading control. […]

[4] = tested on: PDK1; assay: PDK1 IP kinase assay; type: cell-based, human; conditions: 1 μM Tg for 48 h; LNCaP cells
Description: Cell lysates were prepared as described above. PDK1 activity assay was performed according to the manufacturer's protocol (Upstate Biotechnology). Radioactivity that remained on the P81 paper was read with TopCount (Packard).
Protein expression levels and kinase activities of PI3-K, PDK1, and Akt were determined in cav-1-expressing or vector control LNCaP cells before and after treatment with 1 μM Tg for 48 h (+Tg): (A) PI3-K kinase assay by TLC (top gel); (B) PDK1 IP kinase assay; (C) Akt IP kinase assay using recombinant GSK3 as a substrate. Total protein and phosphorylated protein (indicated by P-prefix before protein name) of each kinase were analyzed and presented in each blot. β-Actin served as a loading control. There was no difference in protein expression levels for PI3-K in cav-1-expressing cells to control vector-infected cells (FIG. 2A). Although PI3-K activity was reduced by Tg treatment, no difference was found between cav-1-expressing and control cells (FIG. 2A). Tg treatment also led to reduced PDK1 activity; however, compared with control RSV-infected cells, PDK1 activity was approximately 17% higher in cav-1-expressing cells and approximately 30% higher in Tg-treated cav-1-expressing cells (FIG. 2B). In the same lysates, there was no difference in PDK1 protein expression (FIG. 2B).

[5] = Viability assay with MEK inhibitors; conditions: human
Description: as §1

[6] = target: T1, PP1 (catalytic subunit) (Oryctolagus cuniculus, UniProt P62139); assay: In vitro malachite green phosphatase assay with purified cav-1; type: biochemical, rabbit; conditions: 100 ng purified cav-1, 0.02 U PP1
T1 construct: purchased New England BioLabs
Description: (§2) PP1 (catalytic subunit) (0.02 U) or PP2A (core enzyme) (0.01 U) was incubated with or without 100 ng of purified cav-1 protein for 1 h at 4° C. Phosphatase assay buffer and a phosphopeptide (K-R-pT-1-R-R) were added to a final volume of 50 μl. Reactions were initialed by the addition of 200 μM phosphopeptide, and reaction mixtures were incubated at room temperature for 10 min. Reactions were terminated by the addition of 100 μl of malachite green solution. Activities of PP1 and PP2A were determined by the measurement of absorbance at 620 nm.
(§3) To determine whether the effects of cav-1 on PP1 and PP2A are direct and whether cav-1 interacts with and inhibits PP1 and PP2A in vitro, in vitro IP experiments were performed using purified His-V5-tagged human cav-1, PP1 (C subunit), and PP2A (core enzyme). […] The results of in vitro phosphatase assays indicate that the addition of cav-1 reduced PP1 and PP2A activities by approximately 30% under these basic conditions (FIG. 3F). Briefly, cells were treated with purified cav-1 (¢) or not treated with purified cav-1 (£) and relative activity was determined by measuring the optical density at 620 nm (OD620).

[7] = target: T2, PP2A (core enzyme) (Homo sapiens, UniProt P67775); assay: as above; type: biochemical; conditions: 100 ng purified cav-1, 0.01 U PP2A
T2 construct: purchased Upstate Biotechnology
Description: as §2, §3

T1 sequence (P62139 whole entry): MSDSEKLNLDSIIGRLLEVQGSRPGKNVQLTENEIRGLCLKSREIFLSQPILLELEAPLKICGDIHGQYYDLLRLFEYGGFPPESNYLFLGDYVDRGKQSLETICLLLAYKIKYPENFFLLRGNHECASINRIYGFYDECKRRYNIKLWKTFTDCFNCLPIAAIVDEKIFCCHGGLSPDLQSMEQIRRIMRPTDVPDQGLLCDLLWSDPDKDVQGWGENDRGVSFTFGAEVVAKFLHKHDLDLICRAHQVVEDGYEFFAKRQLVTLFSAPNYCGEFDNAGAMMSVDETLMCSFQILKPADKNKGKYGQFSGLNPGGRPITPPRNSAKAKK
T2 sequence (P67775 whole entry): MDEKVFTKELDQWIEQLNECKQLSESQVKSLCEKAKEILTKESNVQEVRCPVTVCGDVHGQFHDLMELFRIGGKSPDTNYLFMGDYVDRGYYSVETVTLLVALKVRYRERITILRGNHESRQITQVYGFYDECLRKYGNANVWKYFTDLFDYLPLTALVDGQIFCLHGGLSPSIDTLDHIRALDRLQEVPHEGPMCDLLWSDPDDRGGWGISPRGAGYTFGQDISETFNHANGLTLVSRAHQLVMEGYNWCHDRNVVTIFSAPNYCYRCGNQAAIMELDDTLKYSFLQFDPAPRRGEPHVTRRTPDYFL
T2 sequence (P30153 2-589 partner limits assumed): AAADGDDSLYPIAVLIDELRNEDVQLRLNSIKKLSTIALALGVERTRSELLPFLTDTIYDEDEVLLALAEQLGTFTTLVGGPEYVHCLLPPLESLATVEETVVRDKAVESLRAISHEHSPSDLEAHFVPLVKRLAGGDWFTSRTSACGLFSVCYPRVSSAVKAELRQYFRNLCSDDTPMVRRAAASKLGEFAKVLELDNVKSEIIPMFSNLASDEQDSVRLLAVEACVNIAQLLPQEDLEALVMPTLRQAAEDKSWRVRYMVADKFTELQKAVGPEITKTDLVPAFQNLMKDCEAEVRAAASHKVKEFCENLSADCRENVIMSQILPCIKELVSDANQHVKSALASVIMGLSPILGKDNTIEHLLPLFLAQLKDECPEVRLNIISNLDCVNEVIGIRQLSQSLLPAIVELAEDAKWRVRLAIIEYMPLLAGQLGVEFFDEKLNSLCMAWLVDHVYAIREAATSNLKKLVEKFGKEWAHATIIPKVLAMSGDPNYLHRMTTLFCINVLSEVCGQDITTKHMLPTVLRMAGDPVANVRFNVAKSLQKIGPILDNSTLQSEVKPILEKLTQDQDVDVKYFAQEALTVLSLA

Molecule: COc1cccc(-c2cc(=O)c3ccccc3o2)c1N [PD98059]
- phosphorylated ERK1/2 [1]: reduction
- reduction of cell viability [2]: ~20%

Molecule: C/C=C(/C)C(=O)O[C@H]1C(C)=C2[C@H]([C@@H]1OC(=O)CCCCCCC)[C@@](C)(OC(C)=O)C[C@H](OC(=O)CCC)[C@@]1(O)[C@H]2OC(=O)[C@@]1(C)O [Tg, thapsigargin]
- PI3-K activity [3]: reduced
- PDK1 activity [4]: reduced

Molecule: N#CC(=C(/N)Sc1ccccc1N)/C(C#N)=C(\N)Sc1ccccc1N [U0126]
- phosphorylated ERK1/2 [1]: reduction
- cytotoxicity [5]: ~15%

- reduction of PP1 activity [6]: approximately 30%
- reduction of PP2A activity [7]: approximately 30%
B1: purified cav-1: purified His-V5-tagged human cav-1 protein (protein, UniProt Q03135 2-178, looked up)
Caveolin-1: SGGKYVDSEGHLYTVPIREQGNIYKPNNKAMADELSEKQVYDAHTKEIDLVNRDPKHLNDDVVKIDFEDVIAEPEGTHSFDGIWKASFTTFTVTKYWFYRLLSALFGIPMALIWGIYFAILSFLHIWAVVPCIKSFLIEIQCISRVYSIYVHTVCDPLFEAVGKIFSNVRINLQKEI
modifications: His-V5 tag
notes: purified His-V5-tagged human cav-1 protein
